Data set [1] can be described thus: Phytotoxicity against Oryza sativa (rice) assessed as growth inhibition at 10 g/a after 3 weeks in greenhouse conditions. The data set is classed as organism-based. The settings on record: in vivo, read-out: GI.
For data set [2], the system named is Eleocharis kuroguwai. As to the kind of experiment: Pre-emergent herbicidal activity against Eleocharis kuroguwai assessed as growth inhibition at 10 g/a after 3 weeks in greenhouse conditions. The data set is classed as functional. The note with it: pre-emergence, 504 h, read-out: GI.
In data set [3] the test system is Cyperus serotinus. Briefly: Pre-emergent herbicidal activity against Cyperus serotinus assessed as growth inhibition at 10 g/a after 3 weeks in greenhouse conditions. The data set is classed as functional. The settings on record: pre-emergence, 504 h, read-out: GI.
Data set [4] deals with Eleocharis acicularis. As to the kind of experiment: Pre-emergent herbicidal activity against Eleocharis acicularis assessed as growth inhibition at 10 g/a after 3 weeks in greenhouse conditions. The data set is classed as functional. The settings on record: pre-emergence, 504 h, read-out: GI.
The test system of data set [5] is Schoenoplectiella juncoides. Briefly: Pre-emergent herbicidal activity against Schoenoplectiella juncoides assessed as growth inhibition at 10 g/a after 3 weeks in greenhouse conditions. Format: functional. The settings on record: pre-emergence, 504 h, read-out: GI.
In data set [6] the test system is Lindernia procumbens. Briefly: Pre-emergent herbicidal activity against Lindernia procumbens assessed as growth inhibition at 10 g/a after 3 weeks in greenhouse conditions. The data set is classed as functional. The settings on record: pre-emergence, 504 h, read-out: GI.
The test system of data set [7] is Echinochloa oryzicola. Briefly: Pre-emergent herbicidal activity against Echinochloa oryzicola assessed as growth inhibition at 10 g/a after 3 weeks in greenhouse conditions. The data set is classed as functional. The settings on record: pre-emergence, 504 h, read-out: GI.
Data set [8] is described as follows: Phytotoxicity against Oryza sativa (rice) assessed as growth inhibition at 25 g/a after 3 weeks in greenhouse conditions. The data set is classed as organism-based. The note with it: in vivo, read-out: GI.
In data set [9] the test system is Eleocharis kuroguwai. As to the kind of experiment: Pre-emergent herbicidal activity against Eleocharis kuroguwai assessed as growth inhibition at 25 g/a after 3 weeks in greenhouse conditions. The data set is classed as functional. The settings on record: pre-emergence, 504 h, read-out: GI.
Data set [10] deals with Cyperus serotinus. Briefly: Pre-emergent herbicidal activity against Cyperus serotinus assessed as growth inhibition at 25 g/a after 3 weeks in greenhouse conditions. Format: functional. The settings on record: pre-emergence, 504 h, read-out: GI.
In data set [11] the test system is Eleocharis acicularis. Briefly: Pre-emergent herbicidal activity against Eleocharis acicularis assessed as growth inhibition at 25 g/a after 3 weeks in greenhouse conditions. The data set is classed as functional. The note with it: pre-emergence, 504 h, read-out: GI.
Data set [12] relates to Schoenoplectiella juncoides. As to the kind of experiment: Pre-emergent herbicidal activity against Schoenoplectiella juncoides assessed as growth inhibition at 25 g/a after 3 weeks in greenhouse conditions. The data set is classed as functional. The note with it: pre-emergence, 504 h, read-out: GI.
Data set [13] relates to Echinochloa oryzicola. Briefly: Pre-emergent herbicidal activity against Echinochloa oryzicola assessed as growth inhibition at 25 g/a after 3 weeks in greenhouse conditions. The data set is classed as functional. The note with it: pre-emergence, 504 h, read-out: GI.
The subject of data set [14] is Lindernia procumbens. Briefly: Pre-emergent herbicidal activity against Lindernia procumbens assessed as growth inhibition at 25 g/a after 3 weeks in greenhouse conditions. The note with it: pre-emergence, 504 h, read-out: GI. The data set is classed as functional.

In the case of `CCSc1c(C)on(C(=O)N(c2ccc(Cl)cc2Cl)C(C)C)c1=O`, the inhibition at 504 h in [1] is < 10%. The inhibition of growth at 1000 g/ha with Eleocharis kuroguwai [2] is > 91%; with Cyperus serotinus [3], > 91%; in the data set with Eleocharis acicularis [4], 71%; in [5], > 91%; in the data set with Lindernia procumbens [6] it was 71%; in the data set with Echinochloa oryzicola [7], > 91%.
Consider `CCSc1c(C)on(C(=O)N(c2ccc(Cl)cc2)C(C)C)c1=O`, for which the inhibition at 504 h in [1] was < 10%; in data set [8] it was 11%. Besides, the inhibition of growth at 1000 g/ha (in the data set on Eleocharis kuroguwai [2]; with Cyperus serotinus [3]; in the data set on Eleocharis acicularis [4]; in data set [5]; in the data set with Lindernia procumbens [6]; in the data set with Echinochloa oryzicola [7]) was > 91% throughout. For the same compound, the inhibition of growth at 2500 g/ha (with Eleocharis kuroguwai [9]; with Cyperus serotinus [10]; in the data set with Eleocharis acicularis [11]; in [12]; in the data set on Echinochloa oryzicola [13]; in the data set on Lindernia procumbens [14]) was > 91% throughout.
`Cc1on(C(=O)N(c2ccc(Cl)cc2)C(C)C)c(=O)c1SC(F)F`: the inhibition at 504 h in data set [1] was 11%. Also, the inhibition of growth at 1000 g/ha in the data set on Eleocharis kuroguwai [2] was > 91%; with Cyperus serotinus [3], > 91%; with Eleocharis acicularis [4], > 91%; in [5], > 91%; in the data set with Lindernia procumbens [6], 51%; with Echinochloa oryzicola [7], > 91%.
As for `CCSc1c(C)on(C(=O)N(c2ccc(C#N)cc2)C(C)C)c1=O`, the inhibition at 504 h in [1] came to 51%. The inhibition of growth at 1000 g/ha in the data set on Eleocharis kuroguwai [2] was > 91%; in the data set on Cyperus serotinus [3], > 91%; in the data set with Eleocharis acicularis [4], 71%; in [5], > 91%; with Lindernia procumbens [6], 71%; in the data set with Echinochloa oryzicola [7], > 91%.
For `C#CCSc1c(C)on(C(=O)N(c2ccc(Cl)cc2)C(C)C)c1=O`, the inhibition at 504 h in [1] was < 10%; in data set [8], 31%. In addition, the inhibition of growth at 1000 g/ha was > 91% in the data set with Eleocharis kuroguwai [2]; > 91% in the data set on Cyperus serotinus [3]; 51% with Eleocharis acicularis [4]; > 91% in data set [5]; 51% in the data set on Lindernia procumbens [6]; > 91% in the data set on Echinochloa oryzicola [7]. Also, the inhibition of growth at 2500 g/ha in the data set on Eleocharis kuroguwai [9] is > 91%; in the data set with Cyperus serotinus [10] it was > 91%; in the data set with Eleocharis acicularis [11] it was 51%; in data set [12] it was > 91%; with Echinochloa oryzicola [13], > 91%; in the data set with Lindernia procumbens [14], 71%.
Take `CCSc1c(C)on(C(=O)N(c2ccc(C)cc2)C(C)C)c1=O`: the inhibition at 504 h in data set [1] was < 10%. In addition, the inhibition of growth at 1000 g/ha in the data set with Eleocharis kuroguwai [2] was > 91%; with Cyperus serotinus [3] it was > 91%; in the data set on Eleocharis acicularis [4], 71%; in data set [5], > 91%; in the data set with Lindernia procumbens [6], 31%; in the data set on Echinochloa oryzicola [7], > 91%.
Regarding `Cc1on(C(=O)N(c2ccc(Cl)cc2)C(C)C)c(=O)c1SC(C)C`, the inhibition at 504 h is < 10% in [1] and 31% in data set [8]. The inhibition of growth at 1000 g/ha was > 91% in the data set on Eleocharis kuroguwai [2]; > 91% with Cyperus serotinus [3]; 51% with Eleocharis acicularis [4]; > 91% in data set [5]; 51% in the data set on Lindernia procumbens [6]; > 91% with Echinochloa oryzicola [7]. For the same compound, the inhibition of growth at 2500 g/ha was > 91% with Eleocharis kuroguwai [9]; > 91% in the data set on Cyperus serotinus [10]; 71% in the data set on Eleocharis acicularis [11]; > 91% in data set [12]; > 91% with Echinochloa oryzicola [13]; > 91% with Lindernia procumbens [14].
On to `CCSc1c(C)on(C(=O)N(c2cccc(C(F)(F)F)c2)C(C)C)c1=O`, for which the inhibition at 504 h in data set [1] was < 10%. Further, the inhibition of growth at 1000 g/ha in the data set with Eleocharis kuroguwai [2] is > 91%; in the data set with Cyperus serotinus [3], > 91%; with Eleocharis acicularis [4] it was 31%; in [5], 71%; in the data set with Lindernia procumbens [6] it was 51%; with Echinochloa oryzicola [7], > 91%.
On to `CCc1on(C(=O)N(c2ccc(Cl)cc2)C(C)C)c(=O)c1SC(C)C`, for which the inhibition at 504 h in data set [8] was < 10%. The inhibition of growth at 2500 g/ha in the data set on Eleocharis kuroguwai [9] is > 91%; in the data set with Cyperus serotinus [10], > 91%; in the data set on Eleocharis acicularis [11], 51%; in data set [12], > 91%; in the data set with Echinochloa oryzicola [13] it was > 91%; with Lindernia procumbens [14], 51%.
Regarding `CCSc1c(C)on(C(=O)N(CC)c2ccc(Cl)cc2)c1=O`, the inhibition at 504 h in data set [1] turned out to be 31%. The inhibition of growth at 1000 g/ha with Eleocharis kuroguwai [2] is > 91%; in the data set on Cyperus serotinus [3], > 91%; in the data set with Eleocharis acicularis [4] it was 71%; in [5], > 91%; in the data set on Lindernia procumbens [6], 71%; in the data set with Echinochloa oryzicola [7], > 91%.
On to `CCSc1c(C)on(C(=O)N(c2ccc(F)cc2)C(C)C)c1=O`, for which, in data set [8], the inhibition at 504 h was 51%. Moreover, the inhibition of growth at 2500 g/ha (in the data set with Eleocharis kuroguwai [9]; with Cyperus serotinus [10]; in the data set on Eleocharis acicularis [11]; in [12]; in the data set on Echinochloa oryzicola [13]; in the data set on Lindernia procumbens [14]) was > 91% in each case.
Consider `CCSc1c(CC)on(C(=O)N(c2ccc(Cl)cc2)C(C)C)c1=O`, for which the inhibition at 504 h in [1] was < 10%; in data set [8] it was 31%. Moreover, the inhibition of growth at 1000 g/ha was > 91% with Eleocharis kuroguwai [2]; 71% with Cyperus serotinus [3]; 51% in the data set on Eleocharis acicularis [4]; 51% in [5]; 51% with Lindernia procumbens [6]; > 91% in the data set on Echinochloa oryzicola [7]. Moreover, the inhibition of growth at 2500 g/ha in the data set with Eleocharis kuroguwai [9] was > 91%; in the data set with Cyperus serotinus [10], > 91%; in the data set with Eleocharis acicularis [11], 71%; in data set [12], 71%; with Echinochloa oryzicola [13] it was > 91%; with Lindernia procumbens [14] it was 71%.
`COCCSc1c(C)on(C(=O)N(c2ccc(Cl)cc2)C(C)C)c1=O`: the inhibition at 504 h in data set [1] is < 10%; in data set [8], 11%. Also, the inhibition of growth at 1000 g/ha in the data set on Eleocharis kuroguwai [2] is > 91%; in the data set with Cyperus serotinus [3], > 91%; with Eleocharis acicularis [4], 51%; in data set [5], > 91%; in the data set on Lindernia procumbens [6], 31%; in the data set with Echinochloa oryzicola [7], > 91%. Moreover, the inhibition of growth at 2500 g/ha in the data set with Eleocharis kuroguwai [9] is > 91%; in the data set on Cyperus serotinus [10] it was > 91%; in the data set with Eleocharis acicularis [11], 71%; in [12], > 91%; with Echinochloa oryzicola [13], > 91%; in the data set on Lindernia procumbens [14], 51%.
Regarding `CCSc1c(C)on(C(=O)N(C)c2ccc(Cl)cc2)c1=O`, the inhibition at 504 h in data set [8] was 11%. In addition, the inhibition of growth at 2500 g/ha in the data set on Eleocharis kuroguwai [9] is > 91%; with Cyperus serotinus [10], > 91%; in the data set on Eleocharis acicularis [11], 71%; in [12] it was 71%; in the data set with Echinochloa oryzicola [13], > 91%; in the data set with Lindernia procumbens [14], 71%.
Turning to `CCCN(C(=O)n1oc(C)c(SCC)c1=O)c1ccc(Cl)cc1`, the inhibition at 504 h in data set [1] was 11%. For the same compound, the inhibition of growth at 1000 g/ha in the data set on Eleocharis kuroguwai [2] is > 91%; with Cyperus serotinus [3], > 91%; with Eleocharis acicularis [4], 71%; in data set [5] it was > 91%; with Lindernia procumbens [6] it was > 91%; in the data set with Echinochloa oryzicola [7], > 91%.
Regarding `CCSc1c(C)on(C(=O)N(c2cccc([N+](=O)[O-])c2)C(C)C)c1=O`, in data set [1], the inhibition at 504 h was found to be 11%. Also, the inhibition of growth at 1000 g/ha with Eleocharis kuroguwai [2] was > 91%; in the data set on Cyperus serotinus [3] it was > 91%; in the data set on Eleocharis acicularis [4], 71%; in data set [5], > 91%; in the data set on Lindernia procumbens [6], 71%; in the data set on Echinochloa oryzicola [7] it was > 91%.
As to `CCCSc1c(C)on(C(=O)N(c2ccc(F)cc2F)C(C)C)c1=O`, the inhibition at 504 h in [1] was found to be 11%. Besides, the inhibition of growth at 1000 g/ha (with Eleocharis kuroguwai [2]; in the data set on Cyperus serotinus [3]; in the data set with Eleocharis acicularis [4]; in data set [5]; in the data set on Lindernia procumbens [6]; in the data set on Echinochloa oryzicola [7]) was > 91% throughout.
